# System: skin barrier and inflammation biomarkers in lesional skin biopsies
# Test: qRT-PCR (TLDA) biomarker gene expression in lesional skin biopsies (Example 3)
# Assay type: in vivo, human
# Settings: fold change, topical niclosamide 2% once daily 3 weeks, AD lesional skin
# Experimental: Patients received topical applications of a niclosamide 2% composition and vehicle once daily for 3 weeks, followed by a 1-week follow up period. Topical niclosamide 2% and vehicle was applied on two separate target lesions of atopic dermatitis (lesions of at least 3×3-cm that are at least 2 cm apart, excluding the face, scalp, genitals, hands, and feet). The application areas (5×5-cm) were randomized (1:1) to once daily application of niclosamide 2% or vehicle at 5 mg/cm^2 without occlusion 6 days per week. Patients came to the study site for all study product application for a total of 3 weeks.
# Skin barrier and inflammation biomarker levels were determined from lesional skin biopsies from application areas.
# The skin biopsy samples were analysed by immunohistochemistry (IHC), and by gene expression studies by RT-PCR using TaqMan Low Density Array (TLDA), and by microarray using Affymetrix U133A Plus 2. The immunohistochemistry (IHC) was used to analyse cell biomarkers. The methodologies as disclosed by Guttman-Yassky et al, “Major differences in inflammatory dendritic cells and their products distinguish atopic dermatitis from psoriasis”, The Journal of Allergy and Clinical Immunology, vol. 119, issue 5, pages 1210-1217, 2007, were followed except for that U133A Plus 2-set Gene Chip probe arrays was used instead of U95A-set Gene Chip probe arrays.
# Expression values (threshold cycle [Ct]) were normalized to Rplp0 by negatively transforming the Ct values to −dCt (IL17A was normalized to hARP, as analysed by qPCR). The undetected −dCt values were estimated for each gene as the 20% of the minimum across all samples. qRT-PCR expression data were modelled using a mixed effect model with Visit and Treatment Area as a fixed effect and a random intercept for each patient. This formulation intrinsically models the within patient correlation structure as in the case of a paired t-test. This approach introduces less bias than restricting the analysis for those patients who completed the study. Contrasts were used to estimate the fold changes with treatment within each treatment group and conduct hypothesis testing.
# [1] = Day 22, vs vehicle-treated lesion
# [2] = Day 22 vs baseline, listed as niclosamide
compound,measurement,setting,value
"O=C(Nc1ccc([N+](=O)[O-])cc1Cl)c1cc(Cl)ccc1O [Niclosamide, niclosamide]","CAMP expression, Niclosamide vs. Vehicle (qRT-PCR)",[1],−1.33
same,"CCL5 expression, Niclosamide vs. Vehicle (qRT-PCR)",[1],−1.03
same,"CCL17 expression, Niclosamide vs. Vehicle (qRT-PCR)",[1],−1.37
same,"CCL18 expression, Niclosamide vs. Vehicle (qRT-PCR)",[1],−2.02
same,"CCL20 expression, Niclosamide vs. Vehicle (qRT-PCR)",[1],−2.25
same,"CCL22 expression, Niclosamide vs. Vehicle (qRT-PCR)",[1],−1.49
same,"CCL26 expression, Niclosamide vs. Vehicle (qRT-PCR)",[1],−1.49
same,"CXCL1 expression, Niclosamide vs. Vehicle (qRT-PCR)",[1],−1.63
same,"CXCL2 expression, Niclosamide vs. Vehicle (qRT-PCR)",[1],−1.21
same,"CXCL9 expression, Niclosamide vs. Vehicle (qRT-PCR)",[1],1.16
same,"CXCL10 expression, Niclosamide vs. Vehicle (qRT-PCR)",[1],−1.10
same,"DEFB4A/DEFB4B expression, Niclosamide vs. Vehicle (qRT-PCR)",[1],−2.06
same,"FLG expression, Niclosamide vs. Vehicle (qRT-PCR)",[1],1.30
same,"FOXP3 expression, Niclosamide vs. Vehicle (qRT-PCR)",[1],−1.14
same,"IFNg expression, Niclosamide vs. Vehicle (qRT-PCR)",[1],1.19
same,"IL1B expression, Niclosamide vs. Vehicle (qRT-PCR)",[1],−1.01
same,"IL2 expression, Niclosamide vs. Vehicle (qRT-PCR)",[1],−1.36
same,"IL5 expression, Niclosamide vs. Vehicle (qRT-PCR)",[1],−1.47
same,"IL6 expression, Niclosamide vs. Vehicle (qRT-PCR)",[1],−1.24
same,"IL8 expression, Niclosamide vs. Vehicle (qRT-PCR)",[1],−1.46
same,"IL9 expression, Niclosamide vs. Vehicle (qRT-PCR)",[1],−1.17
same,"IL10 expression, Niclosamide vs. Vehicle (qRT-PCR)",[1],−1.51
same,"IL12A expression, Niclosamide vs. Vehicle (qRT-PCR)",[1],1.09
same,"IL12B expression, Niclosamide vs. Vehicle (qRT-PCR)",[1],−1.42
same,"IL13 expression, Niclosamide vs. Vehicle (qRT-PCR)",[1],−1.59
same,"IL15RA expression, Niclosamide vs. Vehicle (qRT-PCR)",[1],−1.12
same,"IL15 expression, Niclosamide vs. Vehicle (qRT-PCR)",[1],−1.14
same,"IL17A expression, Niclosamide vs. Vehicle (qRT-PCR)",[1],−1.40
same,"IL17C expression, Niclosamide vs. Vehicle (qRT-PCR)",[1],−2.35
same,"IL17F expression, Niclosamide vs. Vehicle (qRT-PCR)",[1],1.37
same,"IL19 expression, Niclosamide vs. Vehicle (qRT-PCR)",[1],1.16
same,"IL22 expression, Niclosamide vs. Vehicle (qRT-PCR)",[1],−1.97
same,"IL23A expression, Niclosamide vs. Vehicle (qRT-PCR)",[1],−1.37
same,"IL31 expression, Niclosamide vs. Vehicle (qRT-PCR)",[1],−1.46
same,"IL33 expression, Niclosamide vs. Vehicle (qRT-PCR)",[1],1.11
same,"KRT16 expression, Niclosamide vs. Vehicle (qRT-PCR)",[1],−1.60
same,"LOR expression, Niclosamide vs. Vehicle (qRT-PCR)",[1],1.27
same,"MMP12 expression, Niclosamide vs. Vehicle (qRT-PCR)",[1],−1.90
same,"PI3 expression, Niclosamide vs. Vehicle (qRT-PCR)",[1],−1.93
same,"PPL expression, Niclosamide vs. Vehicle (qRT-PCR)",[1],1.04
same,"S100A7 expression, Niclosamide vs. Vehicle (qRT-PCR)",[1],−2.20
same,"S100A8 expression, Niclosamide vs. Vehicle (qRT-PCR)",[1],−2.02
same,"S100A9 expression, Niclosamide vs. Vehicle (qRT-PCR)",[1],−1.97
same,"S100A12 expression, Niclosamide vs. Vehicle (qRT-PCR)",[1],−2.11
same,"TSLPR expression, Niclosamide vs. Vehicle (qRT-PCR)",[1],−1.36
same,"CAMP expression, Niclosamide vs. Predose (qRT-PCR)",Day 22 vs baseline,−3.02
same,"CCL5 expression, Niclosamide vs. Predose (qRT-PCR)",Day 22 vs baseline,−1.22
same,"CCL17 expression, Niclosamide vs. Predose (qRT-PCR)",Day 22 vs baseline,−2.02
same,"CCL18 expression, Niclosamide vs. Predose (qRT-PCR)",Day 22 vs baseline,−2.45
same,"CCL20 expression, Niclosamide vs. Predose (qRT-PCR)",Day 22 vs baseline,−1.96
same,"CCL22 expression, Niclosamide vs. Predose (qRT-PCR)",Day 22 vs baseline,−1.95
same,"CCL26 expression, Niclosamide vs. Predose (qRT-PCR)",Day 22 vs baseline,−1.03
same,"CXCL1 expression, Niclosamide vs. Predose (qRT-PCR)",Day 22 vs baseline,−2.80
same,"CXCL2 expression, Niclosamide vs. Predose (qRT-PCR)",Day 22 vs baseline,−1.89
same,"CXCL9 expression, Niclosamide vs. Predose (qRT-PCR)",Day 22 vs baseline,−1.51
same,"CXCL10 expression, Niclosamide vs. Predose (qRT-PCR)",Day 22 vs baseline,−1.64
same,"DEFB4A/DEFB4B expression, Niclosamide vs. Predose (qRT-PCR)",Day 22 vs baseline,−4.09
same,"FLG expression, Niclosamide vs. Predose (qRT-PCR)",Day 22 vs baseline,1.50
same,"FOXP3 expression, Niclosamide vs. Predose (qRT-PCR)",Day 22 vs baseline,−1.39
same,"IFNg expression, Niclosamide vs. Predose (qRT-PCR)",Day 22 vs baseline,−1.11
same,"IL1B expression, Niclosamide vs. Predose (qRT-PCR)",Day 22 vs baseline,−1.64
same,"IL2 expression, Niclosamide vs. Predose (qRT-PCR)",Day 22 vs baseline,−1.20
same,"IL5 expression, Niclosamide vs. Predose (qRT-PCR)",Day 22 vs baseline,−2.38
same,"IL6 expression, Niclosamide vs. Predose (qRT-PCR)",Day 22 vs baseline,−2.34
same,"IL8 expression, Niclosamide vs. Predose (qRT-PCR)",Day 22 vs baseline,−3.78
same,"IL9 expression, Niclosamide vs. Predose (qRT-PCR)",Day 22 vs baseline,−1.91
same,"IL10 expression, Niclosamide vs. Predose (qRT-PCR)",Day 22 vs baseline,−1.85
same,"IL12A expression, Niclosamide vs. Predose (qRT-PCR)",Day 22 vs baseline,−1.01
same,"IL12B expression, Niclosamide vs. Predose (qRT-PCR)",Day 22 vs baseline,−2.01
same,"IL13 expression, Niclosamide vs. Predose (qRT-PCR)",Day 22 vs baseline,−2.06
same,"IL15RA expression, Niclosamide vs. Predose (qRT-PCR)",Day 22 vs baseline,−1.46
same,"IL15 expression, Niclosamide vs. Predose (qRT-PCR)",Day 22 vs baseline,−1.47
same,"IL17A expression, Niclosamide vs. Predose (qRT-PCR)",Day 22 vs baseline,−2.23
same,"IL17C expression, Niclosamide vs. Predose (qRT-PCR)",Day 22 vs baseline,−3.24
same,"IL17F expression, Niclosamide vs. Predose (qRT-PCR)",Day 22 vs baseline,1.02
same,"IL19 expression, Niclosamide vs. Predose (qRT-PCR)",Day 22 vs baseline,−3.26
same,"IL22 expression, Niclosamide vs. Predose (qRT-PCR)",Day 22 vs baseline,−2.86
same,"IL23A expression, Niclosamide vs. Predose (qRT-PCR)",Day 22 vs baseline,−2.13
same,"IL31 expression, Niclosamide vs. Predose (qRT-PCR)",Day 22 vs baseline,−1.85
same,"IL33 expression, Niclosamide vs. Predose (qRT-PCR)",Day 22 vs baseline,−1.08
same,"KRT16 expression, Niclosamide vs. Predose (qRT-PCR)",Day 22 vs baseline,−3.88
same,"LOR expression, Niclosamide vs. Predose (qRT-PCR)",Day 22 vs baseline,1.67
same,"MMP12 expression, Niclosamide vs. Predose (qRT-PCR)",Day 22 vs baseline,−3.27
same,"PI3 expression, Niclosamide vs. Predose (qRT-PCR)",Day 22 vs baseline,−4.52
same,"PPL expression, Niclosamide vs. Predose (qRT-PCR)",Day 22 vs baseline,−1.07
same,"S100A7 expression, Niclosamide vs. Predose (qRT-PCR)",Day 22 vs baseline,−3.04
same,"S100A8 expression, Niclosamide vs. Predose (qRT-PCR)",Day 22 vs baseline,−3.85
same,"S100A9 expression, Niclosamide vs. Predose (qRT-PCR)",Day 22 vs baseline,−3.47
same,"S100A12 expression, Niclosamide vs. Predose (qRT-PCR)",Day 22 vs baseline,−4.29
same,"TSLPR expression, Niclosamide vs. Predose (qRT-PCR)",Day 22 vs baseline,−1.82
same,"FLG expression, Niclosamide vs. Predose (qRT-PCR)",[2],increased significantly
same,"LOR expression, Niclosamide vs. Predose (qRT-PCR)",[2],increased significantly

# — patent US20210379085A1, “HALOGENATED SALICYLANILIDES FOR TREATING THE SYMPTOMS OF DERMATITIS” (Union Therapeutics A/S, priority 2018, published 2021)
